Results from patent publication US20250034167A1, “HETEROCYCLIC COMPOUNDS AND METHODS OF USE” (AMGEN INC., priority 2021, published 2025).

Target: His-tagged KRAS G12D protein (Homo sapiens, UniProt P01116, G12D)
Experiment: biochemical

Sequence of His-tagged KRAS G12D protein (P01116 1-188 isoform P01116-2 G12D): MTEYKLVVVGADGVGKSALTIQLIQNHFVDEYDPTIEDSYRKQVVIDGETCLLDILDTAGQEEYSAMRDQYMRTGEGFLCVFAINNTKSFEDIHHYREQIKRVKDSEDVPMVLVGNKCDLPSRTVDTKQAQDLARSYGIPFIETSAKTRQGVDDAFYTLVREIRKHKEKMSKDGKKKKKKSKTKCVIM

Row | Compound | IC50
1 | CCc1c(F)ccc2cc(O)cc(-c3ncc4c(N5C[C@H]6OCC[C@H]65)nc(OC[C@@]56CCCN5C[C@H](F)C6)nc4c3F)c12 (relative stereo) [Example 21, rel-4-(4-((1R,5R)-2-Oxa-6-azabicyclo[3.2.0]heptan-6-yl)-8-fluoro-2-(((2R,7aS)-2-fluorotetrahydro-1H-pyrrolizin-7a(5H)-yl)methoxy)pyrido[4,3-d]pyrimidin-7-yl)-5-ethyl-6-fluoronaphthalen-2-ol] | 0.032 µM
2 | CCc1c(F)ccc2cc(O)cc(-c3ncc4c(N5CCC6OCCC6C5)nc(OC[C@@]56CCCN5C[C@H](F)C6)nc4c3F)c12 (relative stereo) [Example 62, 5-Ethyl-6-fluoro-4-(8-fluoro-2-(((2R,7aS)-2-fluorotetrahydro-1H-pyrrolizin-7a(5H)-yl)methoxy)-4-rel-((3aR,7aS)-hexahydrofuro[3,2-c]pyridin-5(4H)-yl)pyrido[4,3-d]pyrimidin-7-yl)naphthalen-2-ol] | 0.04 µM
3 | CCc1c(F)ccc2cc(O)cc(-c3ncc4c(N5CC[C@H]6CNC(=O)[C@H]6C5)nc(OC[C@@]56CCCN5C[C@H](F)C6)nc4c3F)c12 (relative stereo) [Example 103, rel-(3aR,7aR)-5-(7-(8-Ethyl-7-fluoro-3-hydroxynaphthalen-1-yl)-8-fluoro-2-(((2R,7aS)-2-fluorotetrahydro-1H-pyrrolizin-7a(5H)-yl)methoxy)pyrido[4,3-d]pyrimidin-4-yl)octahydro-3H-pyrrolo[3,4-c]pyridin-3-one] | 0.004 µM
4 | CCc1c(F)ccc2cc(O)cc(-c3ncc4c(N5CC6CCC(C(N)=O)(C6)C5)nc(OC[C@@]56CCCN5C[C@H](F)C6)nc4c3F)c12 (relative stereo) [Example 121, 3-(7-(8-Ethyl-7-fluoro-3-hydroxynaphthalen-1-yl)-8-fluoro-2-(((2R,7aS)-2-fluorotetrahydro-1H-pyrrolizin-7a(5H)-yl)methoxy)pyrido[4,3-d]pyrimidin-4-yl)-3-azabicyclo[3.2.1]octane-1-carboxamide] | 0.006 µM
5 | CCc1c(F)ccc2cc(O)cc(-c3ncc4c(N5CC6CC(O)C(C6)C5)nc(OC[C@@]56CCCN5C[C@H](F)C6)nc4c3F)c12 (single isomer, unassigned) [Example 26] | 0.004 µM
6 | CCc1c(F)ccc2cc(O)cc(-c3ncc4c(N5CC6CC5CCC6O)nc(OCC56CCCN5C[C@H](F)C6)nc4c3F)c12 (stereo in doubt) [Example 155, 6-(7-(8-Ethyl-7-fluoro-3-hydroxy-naphthalen-1-yl)-8-fluoro-2-(((2R,7aS)-2-fluorotetrahydro-1H-pyrrolizin-7a(5H)-yl)methoxy)pyrido[4,3-d]pyrimidin-4-yl)-6-azabicyclo[3.2.1] octan-2-ol] | 0.033 µM
7 | CCc1c(F)ccc2cc(O)cc(-c3ncc4c(N5C[C@@H]6COC[C@@H]65)nc(OC[C@@]56CCCN5C[C@H](F)C6)nc4c3F)c12 [Example 20, 4-(4-((1S,5R)-3-Oxa-6-azabicyclo[3.2.0]heptan-6-yl)-8-fluoro-2-(((2R,7aS)-2-fluorotetrahydro-1H-pyrrolizin-7a(5H)-yl)methoxy)pyrido[4,3-d]pyrimidin-7-yl)-5-ethyl-6-fluoronaphthalen-2-ol] | 0.039 µM
8 | CCc1c(F)ccc2cc(O)cc(-c3ncc4c(N5CC(O)CC(C)(C)C5)nc(OC[C@@]56CCCN5C[C@H](F)C6)nc4c3F)c12 (some centres unmarked) [Example 32] | 0.009 µM
9 | CCc1c(F)ccc2cc(O)cc(-c3ncc4c(N5C6CCC(O)C5CC6)nc(OC[C@@]56CCCN5C[C@H](F)C6)nc4c3F)c12 (stereo partly drawn) [Example 34, 8-(7-(8-Ethyl-7-fluoro-3-hydroxynaphthalen-1-yl)-8-fluoro-2-(((2R,7aS)-2-fluorotetrahydro-1H-pyrrolizin-7a(5H)-yl)methoxy)pyrido[4,3-d]pyrimidin-4-yl)-8-azabicyclo[3.2.1]octan-2-ol 2,2,2-trifluoroacetate] | 0.054 µM
10 | CCc1c(F)ccc2cc(O)cc(-c3ncc4c(N5CC[C@H](C)[C@@H](O)C5)nc(OC[C@@]56CCCN5C[C@H](F)C6)nc4c3F)c12 [Example 35, (3R,4S)-1-(7-(8-Ethyl-7-fluoro-3-hydroxynaphthalen-1-yl)-8-fluoro-2-(((2R,7aS)-2-fluorotetrahydro-1H-pyrrolizin-7a(5H)-yl)methoxy)pyrido[4,3-d]pyrimidin-4-yl)-4-methyl-piperidin-3-ol] | 0.025 µM
11 | CCc1c(F)ccc2cc(O)cc(-c3ncc4c(N5CC(C(N)=O)CC(C)(C)C5)nc(OC[C@@]56CCCN5C[C@H](F)C6)nc4c3F)c12 (stereo partly drawn) [Example 43, 1-(7-(8-Ethyl-7-fluoro-3-hydroxynaphthalen-1-yl)-8-fluoro-2-(((2R,7aS)-2-fluorotetrahydro-1H-pyrrolizin-7a(5H)-yl)methoxy)pyrido[4,3-d]pyrimidin-4-yl)-5,5-dimethylpiperidine-3-carboxamide] | 0.004 µM
12 | CCc1c(F)ccc2cc(O)cc(-c3ncc4c(N5CC6CC(O)C5C6)nc(OC[C@@]56CCCN5C[C@H](F)C6)nc4c3F)c12 (stereo partly drawn) [Example 51, 2-(7-(8-Ethyl-7-fluoro-3-hydroxynaphthalen-1-yl)-8-fluoro-2-(((2R,7aS)-2-fluorotetrahydro-1H-pyrrolizin-7a(5H)-yl)methoxy)pyrido[4,3-d]pyrimidin-4-yl)-2-azabicyclo[2.2.1]heptan-6-ol] | 0.025 µM
13 | CCc1cccc2cc(O)cc(-c3ncc4c(N5C6CCC5C(C)(O)CC6)nc(OC[C@@]56CCCN5C[C@H](F)C6)nc4c3F)c12 (stereo partly drawn) [Example 69, 8-(7-(8-Ethyl-3-hydroxynaphthalen-1-yl)-8-fluoro-2-(((2R,7aS)-2-fluorotetrahydro-1H-pyrrolizin-7a(5H)-yl)methoxy)pyrido[4,3-d]pyrimidin-4-yl)-2-methyl-8-azabicyclo[3.2.1]octan-2-ol] | 0.036 µM

More lines, in order of falling IC50, values ahead:

Row | IC50 | Compound
14 | 0.335 µM | CCC1CCCc2cc(O)cc(-c3ncc4c(N5CCC[C@@](C)(O)C5)nc(OC[C@@]56CCCN5C[C@H](F)C6)nc4c3F)c21 (single isomer, unassigned) [Example 174]
15 | 0.047 µM | CCc1c(F)ccc2cc(O)cc(-c3ncc4c(N5C6CCC(C(N)=O)C5CC6)nc(OC[C@@]56CCCN5C[C@H](F)C6)nc4c3F)c12 (relative stereo) [Example 123, rac-(15,5S)-8-(7-(8-Ethyl-7-fluoro-3-hydroxynaphthalen-1-yl)-8-fluoro-2-(((2R,7aS)-2-fluorotetrahydro-1H-pyrrolizin-7a(5H)-yl)methoxy)pyrido[4,3-d]pyrimidin-4-yl)-8-azabicyclo[3.2.1]octane-2-carboxamide]
16 | 0.042 µM | CCc1c(F)ccc2cc(O)cc(-c3ncc4c(N5CC6CCOC6C5)nc(OC[C@@]56CCCN5C[C@H](F)C6)nc4c3F)c12 (stereo partly drawn) [Example 37, 5-Ethyl-6-fluoro-4-(8-fluoro-2-(((2R,7aS)-2-fluorotetrahydro-1H-pyrrolizin-7a(5H)-yl)methoxy)-4-(hexahydro-5H-furo[2,3-c]pyrrol-5-yl)pyrido[4,3-d]pyrimidin-7-yl)naphthalen-2-ol]
17 | 0.039 µM | CCc1c(F)ccc2cc(O)cc(-c3ncc4c(N5CCC[C@H]6NC(=O)C[C@H]65)nc(OC[C@@]56CCCN5C[C@H](F)C6)nc4c3F)c12 (relative stereo) [Example 63, rel-(3aR,7aR)-4-(7-(8-Ethyl-7-fluoro-3-hydroxynaphthalen-1-yl)-8-fluoro-2-(((2R,7aS)-2-fluorotetrahydro-1H-pyrrolizin-7a(5H)-yl)methoxy)pyrido[4,3-d]pyrimidin-4-yl)octahydro-2H-pyrrolo[3,2-b]pyridin-2-one]
18 | 0.032 µM | CCc1c(F)ccc2cc(O)cc(-c3ncc4c(N5C6CCC5C(C)(O)CC6)nc(OC[C@@]56CCCN5C[C@H](F)C6)nc4c3F)c12 (stereo partly drawn) [Example 70, 8-(7-(8-Ethyl-7-fluoro-3-hydroxynaphthalen-1-yl)-8-fluoro-2-(((2R,7aS)-2-fluorotetrahydro-1H-pyrrolizin-7a(5H)-yl)methoxy)pyrido[4,3-d]pyrimidin-4-yl)-2-methyl-8-azabicyclo[3.2.1]octan-2-ol]
19 | 0.019 µM | CCc1c(F)ccc2cc(O)cc(-c3ncc4c(N5CCC5C(N)=O)nc(OC[C@@]56CCCN5C[C@H](F)C6)nc4c3F)c12 (stereo partly drawn) [Example 5, 1-(7-(8-Ethyl-7-fluoro-3-hydroxynaphthalen-1-yl)-8-fluoro-2-(((2R,7aS)-2-fluorotetrahydro-1H-pyrrolizin-7a(5H)-yl)methoxy)pyrido[4,3-d]pyrimidin-4-yl)azetidine-2-carboxamide]
20 | 0.011 µM | CCc1c(F)ccc2cc(O)cc(-c3ncc4c(N5CC6CC(O)C(C6)C5)nc(OC[C@@]56CCCN5C[C@H](F)C6)nc4c3F)c12 (single isomer, unassigned) [Example 25]
21 | 0.008 µM | C#Cc1c(F)ccc2cccc(-c3ncc4c(N5CCC[C@@](C)(O)C5)nc(OC[C@@]56CCCN5C[C@H](F)C6)nc4c3F)c12 [Example 50, (R)-1-(7-(8-Ethynyl-7-fluoronaphthalen-1-yl)-8-fluoro-2-(((2R,7aS)-2-fluorotetrahydro-1H-pyrrolizin-7a(5H)-yl)methoxy)pyrido[4,3-d]pyrimidin-4-yl)-3-methylpiperidin-3-ol]
22 | 0.006 µM | CCc1c(F)ccc2cc(O)cc(-c3ncc4c(N5C[C@@H](C(N)=O)CC[C@H]5C)nc(OC[C@@]56CCCN5C[C@H](F)C6)nc4c3F)c12 (relative stereo) [Example 64, rel-(3S,6R)-1-(7-(8-Ethyl-7-fluoro-3-hydroxynaphthalen-1-yl)-8-fluoro-2-(((2R,7aS)-2-fluorotetrahydro-1H-pyrrolizin-7a(5H)-yl)methoxy)pyrido[4,3-d]pyrimidin-4-yl)-6-methylpiperidine-3-carboxamide]
23 | 0.005 µM | CCc1c(F)ccc2cc(O)cc(-c3ncc4c(N5CC6CNC(=O)C6C5)nc(OC[C@@]56CCCN5C[C@H](F)C6)nc4c3F)c12 (relative stereo) [Example 61, rel-(3aR,6aS)-5-(7-(8-Ethyl-7-fluoro-3-hydroxynaphthalen-1-yl)-8-fluoro-2-(((2R,7aS)-2-fluorotetrahydro-1H-pyrrolizin-7a(5H)-yl)methoxy)pyrido[4,3-d]pyrimidin-4-yl)hexahydropyrrolo[3,4-c]pyrrol-1(2H)-one]
